Data from ChEMBL document CHEMBL3244021, “Structure and biological activity of (-)-[3H]dihydroalprenolol, a radioligand for studies of beta-adrenergic receptors” (J Med Chem, 1977).

How the values were obtained:
[1] = Displacement of (-)-[3H]dihydroalprenolol from beta adrenergic receptor in frog erythrocyte membrane after 10 mins by liquid scintillation counting analysis; assay type: cell membranes, Anura
[2] = Antagonist activity at beta adrenergic receptor in frog erythrocyte membrane assessed as inhibition of (-)-isoproterenol-stimulated adenylate cyclase activity measured as [32P]-cAMP level; assay type: cell membranes, Anura
[3] = Binding affinity to beta adrenergic receptor in frog erythrocyte membrane after 10 mins by liquid scintillation counting analysis; assay type: cell membranes, Anura
[4] = Stability of the compound; assay type: physicochemical

| SMILES | Kd [1] [nM] | Kd [2] [nM] | Kd [3] [nM] | Stability [4] |
| --- | --- | --- | --- | --- |
| CCCc1ccccc1OCC(O)CNC(C)C (single isomer, unassigned; (-)) | 2.5 | 4 | – | – |
| C=CCc1ccccc1OCC(O)CNC(C)C (configuration not stated) | 2.5 | 4 | – | – |
| [3H]C([3H])([3H])C([3H])([3H])Cc1ccccc1OCC(O)CNC(C)C (single isomer, unassigned; (-)) | – | 4 | 3 | Stable |
